The values that follow are results of earlier work, collected in US8642009B2, “Diagnostic system for the detection of skin cancer” (priority 2005, dated 2014).

The test system of series [1] is OVCAR-3 ovarian carcinoma. As to conditions: OVCAR-3 tumour model, 120 min p.i.; for Tumour/blood: estimated from graphical presentations.
Series [2] deals with MDA-MB human breast cancer. The following applies: MDA-MB tumour model, 120 min p.i.
Series [3] concerns the target αvβ3 (Homo sapiens, UniProt P05106+P06756).
Series [4] concerns M21 human melanoma. The following applies: M21 tumour model, 120 min p.i.
Series [5] relates to Osteo murine osteosarcoma. As to conditions: Osteo tumour model.
Series [6] has as its system CA20948 rat pancreatic tumour. As to conditions: CA20948 tumour model, 4 h p.i.
For series [7], the system named is DLD-1 human colon adenocarcinoma. The following applies: DLD-1 tumour model, 60 min p.i.
In series [8] the test system is U87MG human glioblastoma. As to conditions: U87MG tumour model.
The test system of series [9] is ACHN human renal adenocarcinoma. As to conditions: in vivo.
The mark [10] stands for this setting: 4 h p.i., estimated from graphical presentations.

Where two headings read alike, the source gives them in different places. Marks after values point to notes of the source that are not given here.

αvβ3, sequence (P06756 31-889 limits assumed): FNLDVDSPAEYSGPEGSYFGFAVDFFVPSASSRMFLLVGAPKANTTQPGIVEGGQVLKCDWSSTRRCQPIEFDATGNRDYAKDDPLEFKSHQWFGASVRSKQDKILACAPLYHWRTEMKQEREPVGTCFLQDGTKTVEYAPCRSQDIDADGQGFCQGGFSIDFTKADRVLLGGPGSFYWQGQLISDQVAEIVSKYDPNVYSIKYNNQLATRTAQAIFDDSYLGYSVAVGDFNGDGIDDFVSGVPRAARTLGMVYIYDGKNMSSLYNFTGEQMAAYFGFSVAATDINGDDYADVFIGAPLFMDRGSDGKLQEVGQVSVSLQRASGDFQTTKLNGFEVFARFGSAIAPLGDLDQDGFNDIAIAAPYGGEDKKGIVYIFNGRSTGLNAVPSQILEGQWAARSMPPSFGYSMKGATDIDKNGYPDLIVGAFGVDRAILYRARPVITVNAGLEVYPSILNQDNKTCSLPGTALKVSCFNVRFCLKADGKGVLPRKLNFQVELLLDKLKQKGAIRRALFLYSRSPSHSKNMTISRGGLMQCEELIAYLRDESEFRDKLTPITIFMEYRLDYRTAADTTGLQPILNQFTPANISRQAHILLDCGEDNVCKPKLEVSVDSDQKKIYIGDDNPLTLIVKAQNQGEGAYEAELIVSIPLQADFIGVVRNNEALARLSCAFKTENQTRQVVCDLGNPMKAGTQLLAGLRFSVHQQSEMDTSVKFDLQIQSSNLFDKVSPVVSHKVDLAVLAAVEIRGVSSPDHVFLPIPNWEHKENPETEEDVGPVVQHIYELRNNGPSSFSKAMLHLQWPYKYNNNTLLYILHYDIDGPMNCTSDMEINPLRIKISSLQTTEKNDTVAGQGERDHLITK
αvβ3, sequence (P06756 891-1048 partner limits assumed): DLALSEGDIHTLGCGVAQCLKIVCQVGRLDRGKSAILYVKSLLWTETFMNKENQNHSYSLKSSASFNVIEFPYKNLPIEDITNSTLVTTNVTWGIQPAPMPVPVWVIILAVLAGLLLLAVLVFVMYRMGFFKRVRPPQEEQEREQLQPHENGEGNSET
αvβ3, sequence (P05106 27-788): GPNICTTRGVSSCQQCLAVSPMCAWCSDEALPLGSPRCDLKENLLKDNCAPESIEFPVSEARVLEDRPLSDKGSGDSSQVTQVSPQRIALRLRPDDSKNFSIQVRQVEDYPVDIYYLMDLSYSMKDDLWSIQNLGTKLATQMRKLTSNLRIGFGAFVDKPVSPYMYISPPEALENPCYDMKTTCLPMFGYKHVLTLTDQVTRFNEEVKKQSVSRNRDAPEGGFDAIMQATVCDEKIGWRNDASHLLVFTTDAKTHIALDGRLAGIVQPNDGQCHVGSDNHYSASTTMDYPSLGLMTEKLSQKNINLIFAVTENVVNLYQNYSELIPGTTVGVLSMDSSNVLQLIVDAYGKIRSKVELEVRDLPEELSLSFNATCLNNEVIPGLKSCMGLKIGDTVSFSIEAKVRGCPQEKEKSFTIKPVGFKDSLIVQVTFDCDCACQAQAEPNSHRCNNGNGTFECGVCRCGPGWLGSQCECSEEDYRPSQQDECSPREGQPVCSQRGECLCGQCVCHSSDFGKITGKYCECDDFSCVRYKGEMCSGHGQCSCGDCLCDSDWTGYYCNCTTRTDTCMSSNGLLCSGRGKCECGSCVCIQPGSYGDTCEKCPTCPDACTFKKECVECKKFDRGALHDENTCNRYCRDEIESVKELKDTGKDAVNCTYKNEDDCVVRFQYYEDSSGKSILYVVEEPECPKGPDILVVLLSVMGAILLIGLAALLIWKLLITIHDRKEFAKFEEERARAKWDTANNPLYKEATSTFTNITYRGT

For HYNIC-E-[c(RGDfK])2, in series [1], the Tumour uptake is given as 5.8 ± 0.5^b % ID/g and the Tumour/blood was 10^g ^.

On to DOTA-c(RGDyK), for which, in series [2], the Tumour uptake is listed as 1.4 ± 0.1^b % ID/g, the Tumour/blood is 6.9 and the Tumour/muscle is 6.

Turning to ((c(RGDfE)HEG)2-K)2-Dpr, the half-inhibitory concentration (IC50) in [3] is 0.0002 µM. In addition, in series [4], the Tumour uptake is reported as 1.7 ± 0.1^b % ID/g, the Tumour/blood is 21.3 and the Tumour/muscle is 23.1.

Take c(RGDfY): the IC50 in series [3] was 0.04 µM. In series [5] (60 min p.i.), the Tumour uptake is reported as 0.4 ± 0.1^c % ID/g, the Tumour/blood is listed as 1.1 and the Tumour/muscle is 2.7.

Consider DKCK-RGD, for which, in series [4], the Tumour uptake is 1.1 ± 0.1^b % ID/g, the Tumour/blood is 9.7 and the Tumour/muscle is reported as 8.1.

Regarding c(RGDy V), in [3], the IC50 is 0.01 µM. For the same substance, in series [5] (120 min p.i.), the Tumour uptake is 1.5 ± 0.2^b % ID/g, the Tumour/blood is 8.6 and the Tumour/muscle is on record as 4.9.

Consider DTPA-RGD, for which, in [6], the Tumour uptake is recorded as 0.1 ± 0.02^d % ID/g, the Tumour/blood is recorded as 9.2 and the Tumour/muscle was 7.9.

As for FB-c(RGDyK), in series [2], the Tumour uptake was 1.0 ± 0.3^b % ID/g, the Tumour/blood was 12.2 and the Tumour/muscle is listed as 5.8.

Regarding c(RGDfMe V), in series [7], the Tumour uptake is recorded as 0.9 ± 0.1^c % ID/g, the Tumour/blood was 5.2 and the Tumour/muscle is 2.7.

Consider c(RGDyK), for which, in series [2], the Tumour uptake is reported as 3.0 ± 0.1^b % ID/g, the Tumour/blood is 20.2 and the Tumour/muscle is given as 4.7.

With mPEG-c(RGDyK), in [8] (120 min p.i.), the Tumour uptake is reported as 5.1 ± 0.3^b % ID/g and the Tumour/blood is listed as 85.

For the substance FP-E-c(RGDyK)2, in series [2], the Tumour uptake is 4^b,g % ID/g.

Consider DOTA-PEG-c(RGDyK), for which the Tumour uptake in [8] (4 h p.i.) is given as 1.6 ± 0.2^d % ID/g. Also, in [8] (setting [10]), the Tumour/blood is on record as 80^g ^ and the Tumour/muscle is listed as 16^g ^.

Regarding c(RGDfE)HEG-Dpr, the IC50 in series [3] (IC50 value for the corresponding compound) is 0.02 µM. In [4], the Tumour uptake is 0.5 ± 0.1^b % ID/g, the Tumour/blood is 12.4 and the Tumour/muscle is reported as 13.2.

Consider RGD-4C, for which, in series [9], the Tumour/blood is 1.6 and the Tumour/muscle is recorded as 2.6.

Regarding RGD, the IC50 in series [3] is 0.04 µM. For the same substance, in series [4], the Tumour uptake is 1.8 ± 0.3^b % ID/g, the Tumour/blood is on record as 7.9 and the Tumour/muscle was 6.2.

On to DOTA-RGD, for which, in series [5] (60 min p.i.), the Tumour uptake is reported as 1.1 ± 0.04^c % ID/g, the Tumour/blood was 11.8 and the Tumour/muscle was 2.8.

Turning to (c(RGDfE)HEG)2-K-Dpr, the concentration for half-maximal inhibition (IC50) in series [3] was 0.003 µM. For the same substance, in series [4], the Tumour uptake is listed as 1.6 ± 0.1^b % ID/g, the Tumour/blood is 12.4 and the Tumour/muscle is reported as 14.2.

On to DOTA-E-[c(RGDfK])2, for which, in [1], the Tumour uptake is 7.5 ± 1.5^b % ID/g and the Tumour/blood is 40^g ^.

Turning to FP-PEG-c(RGDyK), in series [8] (120 min p.i.), the Tumour uptake is 2.6 ± 0.1^b % ID/g, the Tumour/blood is listed as 18.4 and the Tumour/muscle is listed as 25.6.

Take DOTA-E[E-c(RGDyK)z]2: the Tumour uptake in series [8] (120 min p.i.) is 7.6 ± 0.6^b % ID/g.
